Consider 4 compounds from publication PMC4099110, “Synthesis and Evaluation of Novel Pyrroles and Pyrrolopyrimidines as Anti-Hyperglycemic Agents” (BioMed Research International, 2014).

Several values for one entry are separate records, joined by “and”; a condition that tells them apart may be missing. Identical values can stand only once.

One series has as its system Male Wistar rats. The experiment in a line: Sucrose-Loaded Model (SLM), blood glucose AUC. Format: in vivo, rat. The note with it: oral gavage, sucrose load 10 gm/kg, mean AUC of blood glucose 30-120 min, dose equivalent to Glimepiride 4 mg/kg by M.wt, vs untreated normal control. The method, then:
The complete course of the experiment was conducted using male Wistar albino rats (200–250 g), reared and maintained in the animal house of the institution and provided free access to pelleted food and water ad libitum. The rats were maintained in a controlled environment (12 h light and dark cycle) for about a week for acclimatization. The protocol of the study was approved by the animal ethics committee of the Faculty of Pharmacy, Helwan University (10-01-2012). The study was conducted in accordance with the EC, directive 86/609/EEC for animal experiments.
Glimepiride (Amaryl) was used as a standard antidiabetic (4 mg/kg) in 1% gum acacia and administered orally. Equivalent doses of all derivatives were calculated according to their molecular weight [M·wt].
Male Wistar rats were fasted overnight. Blood was collected initially and then the compounds were given to corresponding groups consisting of six rats each by oral gavage. A sucrose load of (10 gm/kg) body weight was given to each rat after half an hour posttest treatment. Blood was collected in 30, 60, 90, and 120 min after sucrose load. The percentages (%) fallen in blood glucose level were calculated according to the AUC method.
Data were represented as mean area under curve (AUC) ± SD. Significant differences between groups was tested using GraphPad InStat (Graph software Inc., V 3.05, Ralph Stahlman, Purdue University). Appropriate graphs were plotted using Microsoft Excel 2007. P value less than 0.05 was considered statistically significant.

For the next series, the system named is male Wistar albino rats. The experiment in a line: Streptozotocin (STZ) model of diabetes, blood glucose AUC. In kind it is in vivo, rat. As to conditions: for Potency of antihyperglycemic derivatives compared to Amaryl: decrease in blood glucose relative to Amaryl = 100%, model not stated. As to the method: The complete course of the experiment was conducted using male Wistar albino rats (200-250 g), reared and maintained in the animal house of the institution and provided free access to pelleted food and water ad libitum. The rats were maintained in a controlled environment (12 h light and dark cycle) for about a week for acclimatization. The protocol of the study was approved by the animal ethics committee of the Faculty of Pharmacy, […] University (10-01-2012). The study was conducted in accordance with the EC, directive 86/609/EEC for animal experiments. […] Equivalent doses of all derivatives were calculated according to their molecular weight [M·wt]. Diabetes was induced in overnight fasted rats with a single intraperitoneal injection of streptozotocin (STZ) (Sigma-Aldrich, Co., St. Louis, USA. Catalog number: 1001062761) in a dose of 65 mg/kg. STZ was freshly dissolved in ice cold citrate buffer (0.01 M, pH 4.5) prior to injection. […] Group 2, diabetic + Glimepiride ([…]) (4 mg/kg), served as a reference antidiabetic drug. Groups (3-14) were given the various pyrrole derivatives ([…], b, f, and VIIIf, a, resp.). The treated groups administered the […] and different derivatives orally. For each group, blood glucose was estimated at zero, one, two, four, and six hours after oral administration of derivatives using glucometer (Gluco Dr Super Sensor, AllMedicus Co., Ltd., Anyang, Gyeonggi, Korea). Data were represented as mean area under curve (AUC) ± SD. Significant differences between groups was tested using GraphPad InStat (Graph software Inc., V 3.05, Ralph […], Purdue University). Appropriate graphs were plotted using Microsoft Excel 2007.

Series [1] in a line: In vivo acute toxicity study, serum liver and kidney markers. The arrangement: species or system rat. The note with it: for ALP / ALT / AST / Creatinine: rat serum; for levels of sera ALT, AST, ALP, and creatinine versus control untreated group: rats. The method, then: Alanine aminotransferase (ALT) and aspartate aminotransferase (AST) activities in serum were measured according to the Reitman-Frankel calorimetric transaminase procedure, whereas alkaline phosphatase (ALP) was assayed by the kinetic enzymatic method by measuring the rate of hydrolysis of p-nitrophenyl phosphate by ALP according to Henry; all were measured as indicators of hepatic injury. Serum creatinine levels were assayed as an indicator for renal injury in the samples by a calorimetric method, using commercial diagnostic kits (Diamond Diagnostics, Egypt).

Assay in series [2]: as above
The note with it: rat.

Setting [3] is: oral, STZ 65 mg/kg i.p. diabetic rats, mean AUC of blood glucose 0-6 h, dose equivalent to Glimepiride 4 mg/kg by M.wt, vs diabetic control.

`CCC1=C(C)CN(C(=O)NCCc2ccc(S(=O)(=O)NC(=O)N[C@H]3CC[C@H](C)CC3)cc2)C1=O` [Amaryl, Glimepiride, reference compound]: the inhibition in vivo at 4 mg/kg in the series with Male Wistar rats (Rattus norvegicus, 2 h, read-out: % reduction in blood glucose compared to control, SLM) was determined as 27.7%; in the series with male Wistar albino rats (Rattus norvegicus, oral, STZ 65 mg/kg i.p. diabetic rats, mean AUC of blood glucose 0-6 h, dose equivalent to Glimepiride 4 mg/kg by M.wt, vs diabetic control, read-out: % reduction in blood glucose compared to control, STZ), 30.4%. The “Potency of antihyperglycemic derivatives compared to Amaryl” value (“Potency … compared to Amaryl” for short) in the series with male Wistar albino rats was found to be 100%.
`Cc1nc(Cl)c2c(-c3ccccc3)c(-c3ccccc3)n(-c3c(C)n(C)n(-c4ccccc4)c3=O)c2n1` [IVg, 4-(4-Chloro-2-methyl-5,6-diphenyl-7H-pyrrolo[2,3-d]pyrimidin-7-yl)-1,5-dimethyl-2-phenyl-1H-pyrazol-3(2H)-one] returned a melting point of 158 to 160 °C. The “% reduction in blood glucose compared to control, SLM” value (shortened to “% reduction in blood glucose … SLM”) with Male Wistar rats is 13 ^ a %. For the same compound, the “% reduction in blood glucose compared to control, STZ” value (from here on “% reduction in blood glucose … STZ”) in the series on male Wistar albino rats (setting [3]) was 11.2 ^ a %.
On to `N#Cc1c(-c2ccccc2)c(-c2ccccc2)n(Cc2ccccc2)c1N` [Ia], for which the “% reduction in blood glucose … SLM” value in the series on Male Wistar rats is 17.4% and 17.4 ^ a %. In the series with male Wistar albino rats, the “Potency … compared to Amaryl” value is 109.4% and 109.43%. For the same compound, the “% reduction in blood glucose … STZ” value in the series on male Wistar albino rats (setting [3]) was 33.3% and 33.3 ^ a %. In series [1], this compound showed an ALP of 68.5 ± 12.3 U/L, an ALT of 17.9 ± 2.7 U/L, an AST of 69.4 ± 9.5 U/L and a Creatinine of 0.8 ± 0.16 mg/dL. In addition, the “levels of sera ALT, AST, ALP, and creatinine versus control untreated group” value in series [1] is given as “not significantly changed”. The “death or toxicity symptoms” value in series [2] is given as “did not die or show any toxicity symptoms”.
Consider `Cc1c(-n2cc(-c3ccccc3)c(C#N)c2N)c(=O)n(-c2ccccc2)n1C` [Ie, 2-Amino-1-(1,5-dimethyl-3-oxo-2-phenyl-2,3-dihydro-1H -pyrazol-4-yl)-4-phenyl-1H -pyrrole-3-carbonitrile], for which the “% reduction in blood glucose … SLM” value in the series on Male Wistar rats was 16.7% and 16.7 ^ a %. In the series with male Wistar albino rats, the “Potency … compared to Amaryl” value is 97% and 96.99%. The “% reduction in blood glucose … STZ” value in the series on male Wistar albino rats (setting [3]) is 29.5% and 29.5 ^ a %. Also, in series [1], the ALP stood at 73.9 ± 13.2 U/L, the ALT is recorded as 20.5 ± 3.1 U/L, the AST turned out to be 62.7 ± 9.7 U/L and the Creatinine was determined as 0.77 ± 0.14 mg/dL. The “levels of sera ALT, AST, ALP, and creatinine versus control untreated group” value in series [1] is “not significantly changed”. Also, in series [2], the “death or toxicity symptoms” value is “did not die or show any toxicity symptoms”.
